{"source": "patent US20030187003A1", "about": "“Pharmaceutical compositions and method for the treatment of retroviral infections” (priority 2000, published 2003)", "key": {"HIV-1 L4": {"tested_on": "HIV-1 L4", "type": "cell-based"}, "HIV-1(IIIB) [1]": {"tested_on": "HIV-1(IIIB)", "assay": "time of addition experiment, viral p24 antigen production", "type": "cell-based", "settings": "MT-4 cells, m.o.i. 0.5, 250 μM, p24 at 31 hours post-infection", "protocol": "A time of addition experiment was carried out in order to investigate which step of the replicative cycle was inhibited by compound H. Briefly, this experiment determines how long the addition of an anti-HIV compound can be postponed before losing its antiviral activity in the viral replication cycle. MT-4 cells were infected with HIV-1(IIIB) at a multiplicity of infection (m.o.i.) of 0.5 in order to synchronize all steps of viral replication and the various antiviral test compounds were added at different times (ranging from 0 up to 26 hours) after infection. Viral p24 antigen production was determined 31 hours post-infection (using HIV-1 p24 Core Profile ELISA, Du Pont, Dreieich, Germany) and is expressed as the log10 of the p24 Ag content in pg/ml. Reference compounds with a known mode of action were included in this experiment. Dextran sulfate, a polyanion, interferes with binding of the virus to the cell. The nucleoside analogue AZT inhibits the reverse transcription process. Ritonavir is a proteolytic cleavage inhibitor. […]. Compound H was added at 250 μM. In FIG. 1 showing the results of this experiment, the following symbols were used: (●) for control, (▴) for dextran sulfate (20 μM), (▪) for AZT (1.9 μM), (▪) for ritonavir (2.8 μM) and (*) for compound H (250 μM)."}, "HIV-1 NL43/DS5000": {"tested_on": "HIV-1 NL43/DS5000", "assay": "microbe, parasite or virus in culture", "type": "cell-based"}, "HIV-1 NL43/AMD3100": {"tested_on": "HIV-1 NL43/AMD3100", "assay": "microbe, parasite or virus in culture", "type": "cell-based"}, "HIV-1 L6": {"tested_on": "HIV-1 L6", "type": "cell-based", "settings": "L6 versus wild type strain L1"}, "[2]": {"target": "T1, Recombinant HIV-1 RT (HXB2) (Human immunodeficiency virus type 1 group M subtype B, UniProt P04585)", "T1 construct": "Recombinant HIV-1 RT (HXB2) was obtained as described by Jonckheere et al; made in house", "assay": "inhibition of HIV-1 reverse transcriptase enzymatic activity", "type": "biochemical", "from_the_text": "Poly(rC).oligo(dG) and poly (rA).oligo(dT) were used as template-primers, and 8-[^3H]-dGTP and [^3H]-dTTP were used as radiolabelled substrates."}, "integrase": {"target": "T2, integrase (Human immunodeficiency virus type 1 group M subtype B, UniProt P04585)", "T2 construct": "encoding HIV-1 IN (strain HTLV III); made in house; host or cells: E. coli PC1 (BL21(DE3)(pLysS) ΔendA::TcR)", "assay": "kinetic cleavage assay, conversion of initial stable complex into cleaved product", "type": "biochemical, HIV-1", "settings": "in the presence of 50 μM compound, added after preincubation with dextran sulfate", "protocol": "When dextran sulfate with a molecular weight of 5,000 was added at a final concentration of 0.3 μM, further binding of integrase to the oligonucleotide was blocked. At several periods of time, 5 μl aliquots were taken and the reaction was stopped using 5 μl formamide loading buffer (having the same composition as above). The rate constant for the conversion of ISC into the cleaved product can be calculated using the formula: A-Be^−kt. In order to examine the inhibitory effect of compound H on 3′-processing, we repeated the same experiment in the presence of 50 μM compound (added after preincubation, together with dextran sulfate) and compared the rate constants: In the absence of compound H, it was calculated at 0.152±0.038 min^−1 in its presence at 0.147±0.025 min^−1. This quite similar value rules out that compound H directly affects the catalysis of 3′-processing."}, "[3]": {"target": "recombinant His-tagged HIV-1 integrase (Human immunodeficiency virus type 1 group M subtype B, UniProt P04585)", "assay": "HIV-1 integrase overall integration assay, oligonucleotide-based", "method": "Reactions were started by the addition of the enzyme. Inhibitors were incubated shortly with the reaction components before the addition of integrase. Reactions were allowed to proceed at 37° C. for 7 minutes and stopped by the addition of formamide loading buffer (95% formamide, 30 mM ethylenediamine tetraacetic acid, 0.1% xylene cyanol, 0.1% bromophenol blue, 0.1% sodium dilaurylsulfate SDS). In the overall integration assay, this reaction was allowed to proceed for 60 minutes before the addition of a formamide dye."}, "HIV-1 L1": {"tested_on": "HIV-1 L1", "assay": "inhibition of virus-induced cytopathicity in MT-4 cells, HIV-1 clinical isolate L1", "type": "cell-based", "settings": "Human immunodeficiency virus 1, MT4, 120 h, read-out: EC50 HIV-1 L1"}, "HIV-1(IIIB) [4]": {"tested_on": "HIV-1(IIIB)", "assay": "inhibition of virus-induced cytopathicity in MT-4 cells, HIV-1 (IIIB)", "type": "cell-based", "settings": "for EC50: MT-4 cells, viral cytopathic effect, 5 days post-infection"}, "[5]": {"tested_on": "HIV-1 strains L2, L4 and L6", "assay": "antiviral activity against multi-drug resistant (MddNR) HIV-1 strains", "type": "cell-based", "settings": "strains L2, L4 and L6 versus parental strain L1"}, "[6]": {"tested_on": "HIV-1 (NDK, NL4.3 and L1), HIV-2 (ROD and EHO) and SIV (MAC251)", "assay": "antiviral activity against several HIV and SIV strains", "type": "cell-based", "settings": "range over HIV-1 (NDK, NL4.3 and L1)"}, "HIV-1": {"tested_on": "HIV-1", "assay": "combined inhibitory effect on HIV-1-induced cytopathic effect, isobologram method", "type": "cell-based", "settings": "combination with nevirapine, MT-4 cells, FIG. 4", "protocol": "The antiviral effect of compound H was tested in combination with the nucleoside reverse transcriptase inhibitor zidovudine, the non-nucleoside reverse transcriptase inhibitor nevirapine and the protease inhibitor nelfinavir.\nThe combined inhibitory effect on HIV-1-induced cytopathic effect was evaluated by the isobologram method, as previously described by Elion et al. in J. Biol. Chem. (1954) 208:477-488 and by Baba et al. in Antimicrob. Agents Chemother. (1984) 25:515-517.\nEC50, as defined herein before, was used for calculating the fractional inhibitory concentration (hereinafter referred as FIC). When the minimum FIC index corresponding to the FIC of combined compounds (e.g., FICx+FICy) is equal to 1.0, the combination is said to be additive; when it is beween 1.0 and 0.5, the combination is by definition said to be subsynergistic, and when it is <0.5, the combination is by definition said to be synergistic. When the minimum FIC index is between 1.0 and 2.0, the combination is said to be subantagonistic and, when it is >2.0, the combination is defined as antagonistic."}, "HIV-2 (EHO)": {"tested_on": "HIV-2 (EHO)", "assay": "inhibition of virus-induced cytopathicity in MT-4 cells, HIV-2 (EHO)", "type": "cell-based", "settings": "Human immunodeficiency virus 2, MT4, 120 h, read-out: EC50 HIV-2 EHO"}, "[7]": {"tested_on": "HIV-1-derived vectors pseudotyped with the VSV-G envelope", "assay": "microbe, parasite or virus in culture", "type": "cell-based", "settings": "Human immunodeficiency virus 1, HEK-293T, read-out: EC50 inhibition of transduction"}, "[8]": {"settings": "Human immunodeficiency virus 1, NL43"}}}
{"molecule": "O=[N+]([O-])c1ccc(C2c3c(O)nc(S)nc3Oc3nc(S)nc(O)c32)cc1", "note": "[compound H, 5-(4-nitrophenyl)-2,8-dithiol-4,6-dihydroxy-5H-pyrano[2,3-d:6,5-d′]dipyrimidine]", "values": [{"measurement": "EC50", "setting": "HIV-1 L4; Human immunodeficiency virus 1", "value": "11.7 ± 0.7", "unit": "µM"}, {"measurement": "fold increase in EC50", "setting": "HIV-1 L4; L4 versus wild type strain L1", "value": 3.2}, {"measurement": "time the addition can be postponed after virus infection", "setting": "HIV-1(IIIB) [1]", "value": 6, "unit": "h"}, {"measurement": "EC50", "setting": "HIV-1 NL43/DS5000; [8]", "value": "19.4 ± 1.4", "unit": "µM"}, {"measurement": "fold increase in EC50", "setting": "HIV-1 NL43/DS5000; NL43/DS5000 versus wild type strain NL4.3", "value": 1.3}, {"measurement": "activity against HIV-1 strain resistant to dextran sulfate", "setting": "HIV-1 NL43/DS5000; in words", "value": "active"}, {"measurement": "EC50", "setting": "HIV-1 NL43/AMD3100; [8]", "value": "19.1 ± 1.4", "unit": "µM"}, {"measurement": "fold increase in EC50", "setting": "HIV-1 NL43/AMD3100; NL43/AMD3100 versus wild type strain NL4.3", "value": 1.3}, {"measurement": "activity against HIV-1 strain resistant to bicyclam", "setting": "HIV-1 NL43/AMD3100; in words", "value": "active"}, {"measurement": "fold increase in EC50", "setting": "HIV-1 L6", "value": 2.8}, {"measurement": "IC50", "setting": "[2]; IC50 Poly(A).oligo(dT), template-primer poly(A).oligo(dT)", "value": "24.6 ± 7.2", "unit": "µM"}, {"measurement": "IC50", "setting": "[2]; IC50 poly(C).oligo(dG), template-primer poly(C).oligo(dG)", "value": "4.8 ± 2.2", "unit": "µM"}, {"measurement": "rate constant for the conversion of ISC into the cleaved product", "setting": "integrase", "value": "0.147 ± 0.025", "unit": "min⁻¹"}, {"measurement": "IC50", "setting": "[3]", "value": "0.3 ± 0.2", "unit": "µM"}, {"measurement": "inhibition of the overall integration reaction", "setting": "[3]; in words", "value": "inhibited"}, {"measurement": "EC50", "setting": "HIV-1 L1", "value": "3.7 ± 1.8", "unit": "µM"}, {"measurement": "EC50", "setting": "HIV-1(IIIB) [4]; Human immunodeficiency virus 1, IIIB, MT4, 120 h", "value": 11.4, "unit": "µM"}, {"measurement": "EC50", "setting": "HIV-1(IIIB) [4]", "value": "8.9 ± 0.7", "unit": "µM"}, {"measurement": "activity against the replication of HIV-1(IIIB)", "setting": "HIV-1(IIIB) [4]; in words", "value": "active"}, {"measurement": "reduction in inhibitory potency", "setting": "[5]", "value": "≤ 3", "unit": "fold"}, {"measurement": "EC50", "setting": "[6]", "value": "5.5 to 30", "unit": "µM"}, {"measurement": "added values FICnevirapine+FICV-165", "setting": "HIV-1", "value": "below 0.5"}, {"measurement": "EC50", "setting": "HIV-2 (EHO)", "value": "3.7 ± 0.1", "unit": "µM"}, {"measurement": "EC50", "setting": "[7]", "value": 17, "unit": "µM"}]}
